Measurements from US12569502B2, “Use of bile acids and derivatives thereof in preparation of GPR39 agonist” (PEKING UNIVERSITY, priority 2019, dated 2026).
Read-outs that look alike come from different tables or passages of the source.

Legend:
Assay type in all cases: cell-based
[1] = target: T1, GPR39 receptors on m39-20 cell lines (Mus musculus, UniProt Q5U431, T447P); assay: FLIPR calcium imaging on m39-20 cell lines stably expressing murine-derived GPR39; details: for Bile acid + 4 μM zinc ions Efficacy / Only bile acid Efficacy: activation efficacy; for intracellular calcium signals in m39-20 cell lines: FIG. 1; for intracellular calcium signaling response in m39-20 cells: absence of zinc ions; for change of activation efficacy after the addition of zinc ions: Table 1, FIG. 2; for activation capacity on GPR39 receptors among the bile acids: dose curves
T1 construct: P2A-mCherry (C); expressed in transfected cells
T1 sequence (Q5U431 1-456 T447P): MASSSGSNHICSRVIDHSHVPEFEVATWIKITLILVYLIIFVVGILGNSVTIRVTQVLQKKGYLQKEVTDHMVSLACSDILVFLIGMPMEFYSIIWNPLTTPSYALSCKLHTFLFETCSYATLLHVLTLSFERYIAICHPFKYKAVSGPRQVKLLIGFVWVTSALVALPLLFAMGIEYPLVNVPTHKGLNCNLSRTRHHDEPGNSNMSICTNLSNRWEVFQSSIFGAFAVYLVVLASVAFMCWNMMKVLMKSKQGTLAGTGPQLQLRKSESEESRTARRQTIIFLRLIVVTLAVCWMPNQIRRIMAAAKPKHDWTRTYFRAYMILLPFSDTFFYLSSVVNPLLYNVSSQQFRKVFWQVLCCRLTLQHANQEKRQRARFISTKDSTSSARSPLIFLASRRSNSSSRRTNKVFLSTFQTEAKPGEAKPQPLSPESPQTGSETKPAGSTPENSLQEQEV
Excerpt: Intracellular calcium imaging is a routine technique to study cell functions, the basic principle of which is to detect the concentration of the calcium ion in tissues or cells using a calcium indicator, thereby reflecting certain reactions in the tissues or cells. In the present application, the intracellular calcium released from a cell line that stably or transiently expresses GPR39 is detected using Fluo8-AM, a calcium fluorescent indicator, so as to determine the activation of the GPR39 receptor by the bile acid and derivative thereof.
HEK293T cells (purchased from ATCC) were seeded in a 6-well plate (coming Co.) at an appropriate density (about 0.5-2×10^5/well). When the cell density reached above 30%, the plasmid PLVXK-mGPR39-P2A-mCherry was transfected with Lipofectamine 3000 (Invitrogen) at a concentration of 2 μg per well. The cells were passaged 24 hours after transfection, the puromycin (gibco) was added into the medium at a concentration of 2 μg/mL for antibiotic screening of cells. After 2-4 days of continuous screening, the cells screened for puromycin resistance were trypsinized and screened by flow cytometry for monoclones with red fluorescence. And these monoclones were seeded in a 96-well plate and cultured in a medium without puromycin for around 10 days. Cell colonies with red fluorescence were sorted under a fluorescence microscope, trypsinized and then passaged and expanded in a 6-well plate. Cell lines m39-20 stably expressing murine-derived GPR39 were obtained through the above methods.
Calcium dye Fluo8-AM (ATT bioquest Co.) was dissolved in DMSO solvent to formulate a stock solution of 1 μg/μL. […] After then, the calcium dye working solution was replaced with the 4K solution (50 μL per well), and acclimated for 5 min at room temperature for the subsequent calcium imaging experiment.
Bile acids and derivatives thereof as listed in Table 1 below were dissolved in dimethyl sulfoxide (DMSO, Sigma Co.) solvent to formulate a stock solution of 50 mM, which was stored at −20° C. During calcium imaging with FLIPR, the drug was diluted with the above 4K solution into a working concentration of 400 μM, and packaged into another 96-well plate. […] The instrument parameters were set so that 50 μL of the drug solution may be added into the culture wells within 2 s. The fluorescence recording result within the first 30 seconds was used as the baseline value. The FLIPR robot arm was programmed to automatically add bile acids and derivatives thereof into the cell sample culture wells at the 31st second. 1% of DMSO solvent was used as the blank control.
After that, the calcium dye working solution was replaced with a 4K solution containing 4 μM zinc ions (50 μL per well), followed by acclimation for 5 min at room temperature.

[2] = test system: HEK293T cells; assay: FLIPR calcium imaging on HEK293T cells not expressing GPR39; details: 293T cells not expressing GPR39
Experimental: Bile acids and derivatives thereof as listed in Table 1 below were dissolved in dimethyl sulfoxide (DMSO, Sigma Co.) solvent to formulate a stock solution of 50 mM, which was stored at −20° C. During calcium imaging with FLIPR, the drug was diluted with the above 4K solution into a working concentration of 400 μM, and packaged into another 96-well plate. The drug solution and the cell samples in Example 2.2 were placed into the designated position of the FLIPR instrument (MolecularDevices Co.) respectively. The instrument parameters were set so that 50 μL of the drug solution may be added into the culture wells within 2 s. The fluorescence recording result within the first 30 seconds was used as the baseline value. The FLIPR robot arm was programmed to automatically add bile acids and derivatives thereof into the cell sample culture wells at the 31st second. 1% of DMSO solvent was used as the blank control.
The results of FLIPR calcium imaging experiment of the bile acids and derivatives thereof are shown in FIG. 1, wherein the horizontal coordinate represents the time, and the vertical coordinate represents the relative fluorescence intensity.

[3] = target: T2, human GPR39 receptors on human GPR39-2 cell lines (Homo sapiens, UniProt O43194); assay: FLIPR calcium imaging on human GPR39-2 cell line stably expressing human GPR39; details: for intracellular calcium signal response of human GPR39-2: FIG. 9; for EC50: human GPR39-2 cells
T2 construct: P2A-mCherry (C)
T2 sequence (O43194 1-453): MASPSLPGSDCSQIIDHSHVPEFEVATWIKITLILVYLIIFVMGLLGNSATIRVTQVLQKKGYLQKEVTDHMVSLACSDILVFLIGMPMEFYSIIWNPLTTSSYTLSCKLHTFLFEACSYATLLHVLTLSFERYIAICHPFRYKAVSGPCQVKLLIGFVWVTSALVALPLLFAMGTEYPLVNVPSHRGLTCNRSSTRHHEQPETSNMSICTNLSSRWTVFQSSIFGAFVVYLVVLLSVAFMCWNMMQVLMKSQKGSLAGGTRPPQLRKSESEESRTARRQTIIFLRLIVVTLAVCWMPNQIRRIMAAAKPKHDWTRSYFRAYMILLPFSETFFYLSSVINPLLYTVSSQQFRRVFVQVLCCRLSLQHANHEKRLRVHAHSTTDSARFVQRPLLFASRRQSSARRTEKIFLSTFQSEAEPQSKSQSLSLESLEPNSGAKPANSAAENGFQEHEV
Excerpt: The human GPR39 cDNA vector was purchased from WZ Biosciences Inc., Shandong. It was cloned onto a lentiviral vector PLVXK-hGPR39-P2A-mCherry (FIG. 10) through PCR amplification using primers hGPR39-F (which sequence was shown as set forth in SEQshown as set forth in SEQ ID NO: 15) and hGPR39-R (which sequence was shown as set forth in SEQ shown as set forth in SEQ ID NO: 16), in which the sequence of the target gene human GPR39 cDNA was shown as set forth in SEQ shown as set forth in SEQ ID NO: 14. A cell line human GPR39-2 stably expressing human GPR39 gene was constructed according to the method of Example 1.

[4] = Bile acid + 4 μM zinc ions EC50, m39-20 cells, 4 μM zinc ions
[5] = m39-20 cells, no zinc ions, read-out: Only bile acid EC50

Compound	EC50 [1, 4]	Bile acid + 4 μM zinc ions Efficacy ([1]; m39-20 cells, 4 μM zinc ions)	Only bile acid Efficacy ([1]; m39-20 cells, no zinc ions)	activation of GPR39 receptors in the presence of zinc ions ([1]; m39-20 cells, 4 μM zinc ions)	EC50 [1, 5]	calcium signals on HEK293T cells not expressing GPR39 [2]	intracellular calcium signals in m39-20 cell lines [1]	intracellular calcium signaling response in m39-20 cells [1]	change of activation efficacy after the addition of zinc ions ([1]; m39-20 cells)	activation capacity on GPR39 receptors among the bile acids ([1]; m39-20 cells)	intracellular calcium signal response of human GPR39-2 [3]	EC50 ([3]; no added zinc ions, read-out: EC50 Only agonist)	EC50 ([3]; read-out: EC50 Agonist + 4 μM zinc ions, 4 μM zinc ions)
C[C@H](CCC(=O)O)[C@H]1CC[C@H]2[C@@H]3[C@H](O)C[C@@H]4C[C@H](O)CC[C@]4(C)[C@H]3CC[C@]12C [CDCA, Chenodeoxycholic acid]	75.1 ± 7.6 µM	85 ± 5.2%	0%	capable of activating GPR39 receptors	> 200 µM	may induce observable calcium signals							
C[C@H](CCC(=O)O)[C@H]1CC[C@H]2[C@@H]3CC[C@@H]4C[C@H](O)CC[C@]4(C)[C@H]3C[C@H](O)[C@]12C [DCA, Deoxycholic acid]	58.4 ± 10 µM	93.1 ± 1.4%	0%	capable of activating GPR39 receptors	> 200 µM	may induce observable calcium signals							
C[C@H](CCC(=O)NCC(=O)O)[C@H]1CC[C@H]2[C@@H]3CC[C@@H]4C[C@H](OS(=O)(=O)O)CC[C@]4(C)[C@H]3CC[C@]12C [GLCAS]	8 ± 1.8 µM	110.8 ± 4.1%	98.8 ± 4.6%		47.9 ± 9.4 µM		varying extents of intracellular calcium signals	strong intracellular calcium signaling response	increases slightly	strongest activation capacity	capable of inducing intracellular calcium signal response		
C[C@H](CCC(=O)NCCS(=O)(=O)[O-])[C@H]1CC[C@H]2[C@@H]3CC[C@@H]4C[C@H](OS(=O)(=O)[O-])CC[C@]4(C)[C@H]3CC[C@]12C.[Na+].[Na+] [TLCAS]							varying extents of intracellular calcium signals	strong intracellular calcium signaling response	increases slightly	strongest activation capacity	capable of inducing intracellular calcium signal response	69.4 ± 5 µM	9.6 ± 6.3 µM
C[C@H](CCC(=O)O)[C@H]1CC[C@H]2[C@@H]3[C@@H](O)C[C@@H]4C[C@H](OS(=O)(=O)O)CC[C@]4(C)[C@H]3CC[C@]12C [UDCAS]	68.6 ± 16.3 µM	84.7 ± 2.4%	0%		> 200 µM		varying extents of intracellular calcium signals		obviously improved				
